Laboratory results reported in patent US4663450A, “Optically active cephalosporin analogs” (Kyowa Hakko Kogyo Co., Ltd., priority 1979, dated 1987).
Converted amounts (≈) assume the structure as drawn.

Tests used:
Experiment in all cases: Heart Infusion Agar Dilution Method, antimicrobial activity
Format in all cases: cell-based
Proteus rettgeri KY 4289 = conditions: Providencia rettgeri, KY4289; Proteus retteri KY 4289; pH 7.2; Example 6
Excerpt: (§1) Antimicrobial activities of the compound obtained in Example 1 are as follows. Heart Infusion Agar Dilution Method (pH 7.2) is used.
(§2) Antimicrobial activities of the compound obtained in Example 4 and 5 are as follows. Heart Infusion Agar Dilution Method (pH 7.2) is used. Cefazolin is used as a control.

Proteus vulgaris 6897 = conditions: pH 7.2, Example 6
Excerpt: as §1, §2

Pseudomonas putida 264 = conditions: pH 7.2, Example 6
Excerpt: as §1, §2

[1] = system: Staphylococcus aureus 209-P; conditions: pH 7.2, Example 6
Excerpt: as §1, §2

[2] = system: Staphylococcus aureus Smith; conditions: pH 7.2, Example 6
Excerpt: as §1, §2

[3] = system: Pseudomonas aeruginosa #1
Excerpt: (§3) Heart Infusion Agar Dilution Method (pH 7.2) is used.
as §3

[4] = system: Escherichia coli GN2411-5; conditions: pH 7.2, Example 6
Excerpt: as §1, §2

Proteus morganii KY 4298 = conditions: Morganella morganii, KY4298, pH 7.2, Example 6
Excerpt: as §1, §2

[5] = system: Pseudomonas aeruginosa 145; conditions: pH 7.2, Example 6
Excerpt: as §1, §2

[6] = system: Staphylococcus epidermidis; conditions: pH 7.2, Example 6
Excerpt: as §1, §2

Escherichia coli Juhl = conditions: pH 7.2, Example 6
Excerpt: as §3, §3

Escherichia coli NIHJC-2 = conditions: NIHJC2, pH 7.2, Example 6
Excerpt: as §3, §3

[7] = system: Klebsiella pneumoniae 8045; conditions: pH 7.2, Example 6
Excerpt: as §3, §3

[8] = system: Klebsiella pneumoniae Y-60; conditions: Y60, pH 7.2, Example 6
Excerpt: as §3, §3

Proteus mirabilis 1287 = conditions: pH 7.2, Example 6
Excerpt: as §3, §3

Serratia marcescens T-26 = conditions: T26, pH 7.2, Example 6
Excerpt: as §3, §3

Serratia marcescens T-55 = conditions: T55, pH 7.2, Example 6
Excerpt: as §3, §3

Work on `Cc1nnc(SCC2=C(C(=O)O)N3C(=O)[C@@H](NC(=O)Cn4cnnn4)[C@H]3SC2)s1` [Cefazolin, reference compound] yielded an MIC (Proteus rettgeri KY 4289) of 12.5 µg/mL (≈ 27.5 µM), an MIC (Proteus vulgaris 6897) of 50 µg/mL (≈ 110 µM) and an MIC (Pseudomonas putida 264) of 50 µg/mL (≈ 110 µM). It also gave an MIC [1] of 0.05 µg/mL (≈ 0.11 µM) and an MIC [2] of 0.2 µg/mL (≈ 0.44 µM).
For `CO/N=C(\C(=O)N[C@@H]1C(=O)N2C(C(=O)O)=C[C@@H](O)C[C@H]12)c1csc(N)n1` [A, (4S, 6R, 7S)-7-[2-(2-amino-4-thiazolyl)-2-syn-methoxyiminoacetamido]-4-hydroxy-1-azabicyclo[4,2,0] oct-2-en-8-on-2-carboxylic acid], the MIC ([3]; pH 7.2) was 0.73 µg/mL (≈ 1.91 µM).
`CO/N=C(\C(=O)N[C@@H]1C(=O)N2C(C(=O)O)=C[C@@H](O)C[C@H]12)c1nc(N)sc1Br` [Example 5, (4S, 6R, 7S)-7-[2-(2-amino-5-bromo-4-thiazolyl)-2-syn-methoxyiminoacetamido]-4-hydroxy-1-azabicyclo[4,2,0]oct-2-en-8-on-2-carboxylic acid] was tested, and the MIC [4] was 0.78 µg/mL (≈ 1.69 µM), the MIC (Proteus morganii KY 4298) was 1.56 µg/mL (≈ 3.39 µM) and the MIC (Proteus rettgeri KY 4289) was at most 0.01 µg/mL. For the same compound, the MIC (Proteus vulgaris 6897) was 0.2 µg/mL (≈ 0.435 µM), the MIC [5] was 25 µg/mL (≈ 54.3 µM) and the MIC (Pseudomonas putida 264) was 0.2 µg/mL (≈ 0.435 µM). For the same compound, the MIC [1] was 50 µg/mL (≈ 109 µM), the MIC [2] was 50 µg/mL (≈ 109 µM) and the MIC [6] was 100 µg/mL (≈ 217 µM). The MIC (Escherichia coli Juhl) was 3.12 µg/mL (≈ 6.78 µM), the MIC (Escherichia coli NIHJC-2) was 3.12 µg/mL (≈ 6.78 µM) and the MIC [7] was 0.78 µg/mL (≈ 1.69 µM). For the same compound, the MIC [8] was 1.56 µg/mL (≈ 3.39 µM) and the MIC (Proteus mirabilis 1287) was 1.56 µg/mL (≈ 3.39 µM).
`CC(C)(O/N=C(\C(=O)N[C@@H]1C(=O)N2C(C(=O)O)=C[C@@H](O)C[C@H]12)c1csc(N)n1)C(=O)O` [Example 4, (4S, 6R, 7S)-7-[2-(2-amino-4-thiazolyl)-2-syn-(2-carboxyprop-2-oxyimino)acetamido]-4-hydroxy-1-azabicyclo[4,2,0]oct-2-en-8-on-2-carboxylic acid] showed an MIC [4] of 0.2 µg/mL (≈ 0.441 µM), an MIC (Proteus morganii KY 4298) of 0.1 µg/mL (≈ 0.221 µM) and an MIC (Proteus rettgeri KY 4289) of at most 0.01 µg/mL. It also gave an MIC (Proteus vulgaris 6897) of at most 0.01 µg/mL, an MIC [5] of 3.12 µg/mL (≈ 6.88 µM) and an MIC (Pseudomonas putida 264) of at most 0.01 µg/mL. The MIC [1] was over 100 µg/mL, the MIC [2] was over 100 µg/mL and the MIC [6] was over 100 µg/mL. For the same compound, the MIC (Escherichia coli Juhl) was 0.4 µg/mL (≈ 0.882 µM), the MIC (Escherichia coli NIHJC-2) was 0.78 µg/mL (≈ 1.72 µM) and the MIC [7] was 0.2 µg/mL (≈ 0.441 µM). For the same compound, the MIC [8] was 0.2 µg/mL (≈ 0.441 µM), the MIC (Proteus mirabilis 1287) was 0.02 µg/mL (≈ 0.0441 µM) and the MIC ([3]; pH 7.2, Example 6) was 0.78 µg/mL (≈ 1.72 µM). For the same compound, the MIC (Serratia marcescens T-26) was 0.78 µg/mL (≈ 1.72 µM) and the MIC (Serratia marcescens T-55) was 0.4 µg/mL (≈ 0.882 µM).
